System: subjects with pulmonary hypertension
Assay: Systemic blood pressure (noninvasive) and heart rate monitoring during the study
Protocol: During the study right heart/pulmonary artery hemodynamics were measured as well as noninvasive systemic blood pressure monitoring and simultaneous RV echocardiography. Subjects were tested for the changes in pulmonary vascular resistance (PVR) measured by right heart catheterization and using thermodilution cardiac output measurement at time zero, at times 15, 30 and 45 minutes after completion of each nebulization dose.
Subjects were monitored closely for changes in blood pressure during the study. […] Subjects were continued to be monitored closely every 10 minutes for 2 hours.

[1] = Patient 1, nitrite 45 mg inhaled, 15 min
[2] = Patient 1, nitrite 45 mg inhaled, 30 min
[3] = Patient 1, nitrite 45 mg inhaled, 45 min
[4] = Patient 1, nitrite 45 mg inhaled, 60 min
[5] = Patient 1, nitrite 90 mg inhaled, 15 min
[6] = Patient 1, nitrite 90 mg inhaled, 30 min
[7] = Patient 1, nitrite 90 mg inhaled, 45 min
[8] = Patient 1, nitrite 90 mg inhaled, 60 min
[9] = Patient 2, nitrite 45 mg inhaled, 15 min
[10] = Patient 2, nitrite 45 mg inhaled, 30 min
[11] = Patient 2, nitrite 45 mg inhaled, 45 min
[12] = Patient 2, nitrite 45 mg inhaled, 60 min
[13] = Patient 2, nitrite 90 mg inhaled, 15 min
[14] = Patient 2, nitrite 90 mg inhaled, 30 min
[15] = Patient 2, nitrite 90 mg inhaled, 45 min
[16] = Patient 2, nitrite 90 mg inhaled, 60 min
[17] = Patient 3, nitrite 45 mg inhaled, 15 min
[18] = Patient 3, nitrite 45 mg inhaled, 30 min
[19] = Patient 3, nitrite 45 mg inhaled, 45 min
[20] = Patient 3, nitrite 45 mg inhaled, 60 min
[21] = Patient 3, nitrite 90 mg inhaled, 15 min
[22] = Patient 3, nitrite 90 mg inhaled, 30 min
[23] = Patient 3, nitrite 90 mg inhaled, 45 min
[24] = Patient 3, nitrite 90 mg inhaled, 60 min
[25] = Patient 4, nitrite 45 mg inhaled, 15 min
[26] = Patient 4, nitrite 45 mg inhaled, 30 min
[27] = Patient 4, nitrite 45 mg inhaled, 45 min
[28] = Patient 4, nitrite 45 mg inhaled, 60 min
[29] = Patient 4, nitrite 90 mg inhaled, 15 min
[30] = Patient 4, nitrite 90 mg inhaled, 30 min
[31] = Patient 4, nitrite 90 mg inhaled, 45 min
[32] = Patient 4, nitrite 90 mg inhaled, 60 min
[33] = Patient 5, nitrite 45 mg inhaled, 15 min
[34] = Patient 5, nitrite 45 mg inhaled, 30 min
[35] = Patient 5, nitrite 45 mg inhaled, 45 min
[36] = Patient 5, nitrite 45 mg inhaled, 60 min
[37] = Patient 5, nitrite 90 mg inhaled, 15 min
[38] = Patient 5, nitrite 90 mg inhaled, 30 min
[39] = Patient 5, nitrite 90 mg inhaled, 45 min
[40] = Patient 5, nitrite 90 mg inhaled, 60 min
[41] = at the doses tested (45 mg and 90 mg inhaled)

O=NO [nitrite, sodium nitrite]
HR [1]: 81 | Systemic DBP [1]: 71 | Systemic SBP [1]: 109 | Systemic mBP [1]: 83.68 | HR [2]: 83 | Systemic DBP [2]: 78 | Systemic SBP [2]: 108 | Systemic mBP [2]: 88.01 | HR [3]: 82 | Systemic DBP [3]: 72 | Systemic SBP [3]: 109 | Systemic mBP [3]: 84.34 | HR [4]: 88 | Systemic DBP [4]: 78 | Systemic SBP [4]: 108 | Systemic mBP [4]: 88.01 | HR [5]: 93 | Systemic DBP [5]: 67 | Systemic SBP [5]: 97 | Systemic mBP [5]: 77.01 | HR [6]: 93 | Systemic DBP [6]: 66 | Systemic SBP [6]: 102 | Systemic mBP [6]: 78.01 | HR [7]: 94 | Systemic DBP [7]: 62 | Systemic SBP [7]: 102 | Systemic mBP [7]: 75.34 | HR [8]: 92 | Systemic DBP [8]: 67 | Systemic SBP [8]: 105 | Systemic mBP [8]: 79.68 | HR [9]: 74 | Systemic DBP [9]: 82 | Systemic SBP [9]: 136 | Systemic mBP [9]: 100.01 | HR [10]: 73 | Systemic DBP [10]: 75 | Systemic SBP [10]: 137 | Systemic mBP [10]: 95.68 | HR [11]: 75 | Systemic DBP [11]: 75 | Systemic SBP [11]: 137 | Systemic mBP [11]: 95.68 | HR [12]: 77 | Systemic DBP [12]: 68 | Systemic SBP [12]: 132 | Systemic mBP [12]: 89.34 | HR [13]: 74 | Systemic DBP [13]: 76 | Systemic SBP [13]: 142 | Systemic mBP [13]: 98.01 | HR [14]: 74 | Systemic DBP [14]: 77 | Systemic SBP [14]: 132 | Systemic mBP [14]: 95.34 | HR [15]: 76 | Systemic DBP [15]: 81 | Systemic SBP [15]: 141 | Systemic mBP [15]: 101.01 | HR [16]: 77 | Systemic DBP [16]: 78 | Systemic SBP [16]: 143 | Systemic mBP [16]: 99.68 | HR [17]: 63 | Systemic DBP [17]: 55 | Systemic SBP [17]: 96 | Systemic mBP [17]: 68.67 | HR [18]: 51 | Systemic DBP [18]: 56 | Systemic SBP [18]: 95 | Systemic mBP [18]: 69.01 | HR [19]: 67 | Systemic DBP [19]: 59 | Systemic SBP [19]: 92 | Systemic mBP [19]: 70.01 | HR [20]: 63 | Systemic DBP [20]: 52 | Systemic SBP [20]: 106 | Systemic mBP [20]: 70.01 | HR [21]: 68 | Systemic DBP [21]: 54 | Systemic SBP [21]: 100 | Systemic mBP [21]: 69.34 | HR [22]: 71 | Systemic DBP [22]: 58 | Systemic SBP [22]: 102 | Systemic mBP [22]: 72.68 | HR [23]: 70 | Systemic DBP [23]: 54 | Systemic SBP [23]: 100 | Systemic mBP [23]: 69.34 | HR [24]: 72 | Systemic DBP [24]: 59 | Systemic SBP [24]: 103 | Systemic mBP [24]: 73.68 | HR [25]: 72 | Systemic DBP [25]: 73 | Systemic SBP [25]: 137 | Systemic mBP [25]: 94.34 | HR [26]: 69 | Systemic DBP [26]: 77 | Systemic SBP [26]: 134 | Systemic mBP [26]: 96.01 | HR [27]: 72 | Systemic DBP [27]: 71 | Systemic SBP [27]: 134 | Systemic mBP [27]: 92.01 | HR [28]: 71 | Systemic DBP [28]: 71 | Systemic SBP [28]: 131 | Systemic mBP [28]: 91.01 | HR [29]: 61 | Systemic DBP [29]: 64 | Systemic SBP [29]: 120 | Systemic mBP [29]: 82.68 | HR [30]: 70 | Systemic DBP [30]: 68 | Systemic SBP [30]: 126 | Systemic mBP [30]: 87.34 | HR [31]: 63 | Systemic DBP [31]: 63 | Systemic SBP [31]: 121 | Systemic mBP [31]: 82.34 | HR [32]: 63 | Systemic DBP [32]: 66 | Systemic SBP [32]: 129 | Systemic mBP [32]: 87.01 | HR [33]: 58 | Systemic DBP [33]: 49 | Systemic SBP [33]: 91 | Systemic mBP [33]: 63.01 | HR [34]: 53 | Systemic DBP [34]: 52 | Systemic SBP [34]: 95 | Systemic mBP [34]: 66.34 | HR [35]: 65 | Systemic DBP [35]: 52 | Systemic SBP [35]: 98 | Systemic mBP [35]: 67.34 | HR [36]: 62 | Systemic DBP [36]: 45 | Systemic SBP [36]: 95 | Systemic mBP [36]: 61.67 | HR [37]: 59 | Systemic DBP [37]: 53 | Systemic SBP [37]: 100 | Systemic mBP [37]: 68.68 | HR [38]: 61 | Systemic DBP [38]: 49 | Systemic SBP [38]: 102 | Systemic mBP [38]: 66.68 | HR [39]: 65 | Systemic DBP [39]: 47 | Systemic SBP [39]: 94 | Systemic mBP [39]: 62.67 | HR [40]: 58 | Systemic DBP [40]: 54 | Systemic SBP [40]: 107 | Systemic mBP [40]: 71.68 | HR (Patient 6, nitrite 45, 15 min): 95 | Systemic DBP (Patient 6, nitrite 45, 15 min): 58 | Systemic SBP (Patient 6, nitrite 45, 15 min): 110 | Systemic mBP (Patient 6, nitrite 45, 15 min): 75.3426 | HR (Patient 6, nitrite 45, 30 min): 99 | Systemic DBP (Patient 6, nitrite 45, 30 min): 65 | Systemic SBP (Patient 6, nitrite 45, 30 min): 127 | Systemic mBP (Patient 6, nitrite 45, 30 min): 85.6773 | HR (Patient 6, nitrite 45, 45 min): 96 | Systemic DBP (Patient 6, nitrite 45, 45 min): 66 | Systemic SBP (Patient 6, nitrite 45, 45 min): 126 | Systemic mBP (Patient 6, nitrite 45, 45 min): 86.0106 | HR (Patient 6, nitrite 45, 60 min): 97 | Systemic DBP (Patient 6, nitrite 45, 60 min): 65 | Systemic SBP (Patient 6, nitrite 45, 60 min): 128 | Systemic mBP (Patient 6, nitrite 45, 60 min): 86.0107 | HR (Patient 6, nitrite 90, 15 min): 93 | Systemic DBP (Patient 6, nitrite 90, 15 min): 59 | Systemic SBP (Patient 6, nitrite 90, 15 min): 112 | Systemic mBP (Patient 6, nitrite 90, 15 min): 76.6761 | HR (Patient 6, nitrite 90, 30 min): 95 | Systemic DBP (Patient 6, nitrite 90, 30 min): 66 | Systemic SBP (Patient 6, nitrite 90, 30 min): 110 | Systemic mBP (Patient 6, nitrite 90, 30 min): 80.6762 | HR (Patient 6, nitrite 90, 45 min): 90 | Systemic DBP (Patient 6, nitrite 90, 45 min): 60 | Systemic SBP (Patient 6, nitrite 90, 45 min): 114 | Systemic mBP (Patient 6, nitrite 90, 45 min): 78.0096 | HR (Patient 6, nitrite 90, 60 min): 91 | Systemic DBP (Patient 6, nitrite 90, 60 min): 58 | Systemic SBP (Patient 6, nitrite 90, 60 min): 111 | Systemic mBP (Patient 6, nitrite 90, 60 min): 75.676 | heart rate [41]: does not significantly affect | systemic blood pressure [41]: does not significantly affect

Source: patent US11986493B2 (University of Pittsburgh—Of the Commonwealth System of …, priority 2013, dated 2024)
